According to paper PMC8097335, “A High‐Affinity Calmodulin‐Binding Site in the CyaA Toxin Translocation Domain is Essential for Invasion of Eukaryotic Cells” (Advanced Science, 2021):

Tests used:
[1] = Synchrotron radiation circular dichroism, alpha-helical content (Bestsel); assay type: physicochemical; details: 25 °C, far-UV SRCD; for alpha-helical content, TFE 20%: 20% TFE; for alpha-helical content, POPC:POPG 8:2: SUVs POPC:POPG 8:2 at 2 mM lipid; for alpha-helical content, Solution: buffer A
Protocol: Synchrotron Radiation Circular Dichroism
Synchrotron radiation circular dichroism (SRCD) was performed on the DISCO beamline of the synchrotron SOLEIL (Saint -Aubin, France) . Spectra were recorded at 25°C with an integration time of 1.2 s and a bandwidth of 1 nm with a resolution of 1 nm. A far-UV spectrum represents the average of four individual scans. QS cells (Hellma, France) with a pathlength of 20, 50, 100 or 200 μm (depending on final protein concentrations) were used to record spectra in the fa r -UV range (from 190 to 250 nm). CD spectra of peptides and proteins were measured in buffers A and B, 20% of trifluoroethanol (TFE), in the presence of SUVs (POPC :PO PG 8: 2) or Ca M. Secondary structure content was estimated using Bestsel software […]
Table S8: Estimation of the α -helical content of P454-derived peptides. The secondary structure content is estimated using the on-line Bestsel software 17 available at http://bestsel.elte.hu/index.php. […]
peptide in buffer A, in 20% TFE and in the presence of POPC POPG (molar ratio 8:2) at 2 mM lipid concentration. The far -UV CD spectra of several P454-derived peptides are shown […]

[2] = Membrane permeabilization of ANTS/DPX-loaded LUVs; details: for CP1/2, peptide concentration required to induce recovery of 50% of ANTS fluorescence intensity upon LUVs permeabilization: ANTS:DPX LUVs POPC:POPG 8:2, 0.45 mM lipid, buffer A pH 7.4, 25 °C, ex 390/em 515 nm, S.D. ± 5%; for Vesicle permeabilization (in words): ANTS:DPX LUVs POPC:POPG 8:2
Protocol: To monitor membrane permeabilization induced by peptides, ANTS (fluorophore probe) and
DPX (quencher) were encapsulated into large unilamellar vesicles (LUVs). The LUVs were
prepared at a concentration of 10 mM lipid at a POPC:PO PG molar ratio of 8:2 containing 20
mM ANTS and 60 mM DPX. The multilamellar vesicle suspension was extrudedthrough 0.4-
and 0.2 μm polycarbonate filters to produce LUVs. The unencapsulated ANT S a nd DPX we re
removed by gel filtration with a 5 mL Sephadex G -25 column (GE Healthcare Life Sciences ).
For permeabilization assays, LUVs were incubated in buffer A at 0.45 mM lipid
concentration at 25°C in a 101-QS cuvette (Hellma, France) and under constant stirring.
excitation wavelength was set at 390 nm and the emission of ANTS was continuously
measured at 515 nm. The maximum intensity of permeabilization, corresponding to the
maximum recovery of ANTS fluorescence, was measured after addition of 0.1% of Triton
X100. The concentration of membrane-bound peptide s required to induce the recovery of half
intensity of the ANTS fluorescence (C P1/2) was extracted from the permeabilization intensity
a s a function of peptide concentration 1.
LUVs were incubated in buffer B at a lipid concentration of 0.45 mM.
After a few seconds of permeabilization,
holo-Ca M wa s added t o t he solution at a peptide:Ca M molar ratio of 1:3. EDT A wa s
subsequently added in excess to chelate calcium and convert holo -CaM to apo -C a M .

[3] = target: T1, calmodulin (CaM) (Homo sapiens, UniProt P0DP23); assay: Peptide titrations by CaM followed by tryptophan fluorescence, and ITC (Kd for CaM); assay type: binding; details: for Decrease of affinity for CaM relative to P454: from Table S3; for Kd: holo-CaM, from fluorescent titrations and ITC, 25 °C, average of at least three independent replicates; for Kd / ∆GKd for CaM: S.D. within ± 10%; for ∆GKd for CaM: ΔGKd = RTln(Kd)
T1 construct: made in house; host or cells: E. coli
Excerpt: peptides by CaM and is expressed as follows: 𝐾𝐾 𝑑𝑑 = [𝑃𝑃 ]∗[𝐶𝐶𝐶𝐶𝐶𝐶 ][𝑃𝑃:𝐶𝐶𝐶𝐶𝐶𝐶] , given 𝐾𝐾𝑑𝑑[𝐶𝐶𝐶𝐶𝐶𝐶]= [𝑃𝑃 ][𝑃𝑃 :𝐶𝐶𝐶𝐶𝐶𝐶]and the fraction of complex, fP:CaM, i s: 𝑓𝑓𝑃𝑃:𝐶𝐶𝐶𝐶𝐶𝐶 = [𝑃𝑃 :𝐶𝐶𝐶𝐶𝐶𝐶 ][𝑃𝑃:𝐶𝐶𝐶𝐶𝐶𝐶]+[𝑃𝑃]= 11+ [𝑃𝑃 ]= 11+ 𝐾𝐾𝑑𝑑.

[4] = Peptide titrations by SUVs followed by tryptophan fluorescence (solution-to-membrane partition); assay type: physicochemical; details: for Partition coefficient KX: POPC:POPG 8:2 SUVs, buffer A pH 7.4, 25 °C, tryptophan fluorescence ratio 330/370 nm; for Partition coefficient KX / ∆GKx for POPC POPG 8:2: S.D. within ± 10%; for Kd: converted from KX: [W]/KX = Kd, [W] = 55.5 M, read-out: Kd for POPC:POPG 8:2; for ∆GKx for POPC POPG 8:2: ∆GKx = -RT Ln Kx
Protocol: Lipid vesicles preparation
Small unilamellar vesicles (SUVs) and large unilamellar vesicles (LUVs) were prepared with POPC and POPG at a molar ratio of 8:2, at a lipid concentration of 10 mM in buffer A, as previously described 1. Briefly, SUVs and LUVs were prepared by reverse phase evaporation and filtered through polycarbonate filters of 1 μm and 0.2 μm of pore size diameter to obtain L UV. SUVs were further sonicated. The hydrodynamic diameters and mean net charge of the vesicles were measured by dynamic light scattering (DLS) and electrophoretic mobility, respectively, using a ZetaSizer NanoZS (Malvern Pananalytical , Orsay, France) 11.
Peptide titrations bySUV s and CaM followed by tryptophan fluorescence
Titrations were carried out with a FP-8200 Jasco spectrofluorimeter, equipped with a Pelt ie r - thermostated ETC-272T at 25°C. A bandwidth of 5 nm was used for both excitation and […]
(Hellma, France) with constant stirring. Fluorescence emission was recorded between 300 and […]
400 nm at a scan rate of 100 nm/min, with an excitation wavelength of 280 nm. Fluorescence emission spectra were corrected for SUV or CaM baselines . Fluorescence intensity ratio at 330 nm over 370 nm was use d to measure the partition coefficient (K X) of peptides between the solution andmembrane s 1, 12 and the affinity (K d) of peptides for CaM 13.
Determination of partition coefficient KX and dissociation constant Kd from […]
The partition coefficient KX is defined as the ratio of protein in the lipid (PL) and in buffer […]
(PW) pha se s 12, 14, expressed by: KKXX = [LL ]? , giving[PPWW ] [PPWW ]= [WW], where [W] the […]
concentration of water (55.5 M) and [L] the lipid concentration.
The fraction of peptide partitioned into the membrane, fPL, is equal to:
ffPPLL = [PPLL ][PPTT ]= [PPLL ][PPLL ]+[PPWW ]= 11+([PPWW ])= 11+( [WW]), where PT is the total concentration of peptides [PP TT ]= [PP LL ]+ [PP WW ]. […]
The equations a re fitted to the experimental data using the KaleidaGraph software, providing the KX and K d value s. The partition coefficient is related to the apparent dissociation constant:
KKXX × KKdd = [WW ] and to the free energy of partition ΔG Kx = -RTln(K X), where ΔG is the free energy in kcal/mol, R the gas constant (R = 1.98 x 10-3 kcal/mol/K) and T the temperature i n Kelvin. The free energy of peptide CaM interaction, ∆G Kd, is given by ΔG Kd = RTln(K d).
Sedimentation velocity-Analytical ultracentrifugation (SV -AUC) […]
ratio 1:1 (at 70 µM each). Samples were incubated 2h at 20°C in the ultracentrifuge and, then span at 42,000 rpm in an An-50 Ti rotor. […]

| Compound | alpha-helical content, TFE 20% [1] [%] | alpha-helical content, POPC:POPG 8:2 [1] [%] | alpha-helical content, Solution [1] [%] | CP1/2, peptide concentration required to induce recovery of 50% of ANTS fluorescence intensity upon LUVs permeabilization [2] [µM] | Decrease of affinity for CaM relative to P454 [3] | Kd [3] [nM] | ∆GKd for CaM [3] [kcal/mol] | Partition coefficient KX [4] | Kd [4] [µM] | ∆GKx for POPC POPG 8:2 [4] [kcal/mol] | Vesicle permeabilization (in words) [2] |
| --- | --- | --- | --- | --- | --- | --- | --- | --- | --- | --- | --- |
| Ac-ASAHWGQRALQGAQAVAAAQRAVSAAALMTQ-NH2 [P454 L475A-H477S-I479A] | 51 ± 4 | 6 ± 2 | 6 ± 2 | 9.03 | ≈ 20 fold | 1540 | -7.9 | 18 ×10^3 | 3160 | -5.8 |  |
| Ac-ASAHWGQRALQGAQAVAAAQRLVHAAALMTQ-NH2 [P454 I479A] | 29 ± 1 | 12 ± 3 | 8 ± 2 | 7.86 |  |  | -7.9 | 330 ×10^3 | 170 | -7.5 |  |
| Ac-ASAHWGQRALQGAQAVAAAQRLVSAAALMTQ-NH2 [P454 H477S-I479A] | 51 ± 4 | 27 ± 3 | 2 ± 2 | 1.88 | ≈ 20 fold | 1190 | -8.0 | 105 ×10^3 | 530 | -6.8 |  |
| Ac-ASAHWGQRALQGAQAVAAAQRLVHAVALMTQ-NH2 [P454 I479V] | 47 ± 6 | 37 ± 2 | 2 ± 1 | 0.09 |  | 110 | -9.4 | 560 ×10^3 | 100 | -7.8 |  |
| Ac-ASAHWGQRALQGAQAVAAAQRLVHALALMTQ-NH2 [P454 I479L] | 51 ± 1 | 51 ± 5 | 13 ± 1 | 0.04 |  | 60 | -9.8 | 700 ×10^3 | 80 | -7.9 |  |
| Ac-ASAHWGQKALQGAQAVAAAQKLVHAIALMTQ-NH2 [P454 R12K] | 45 ± 4 | 26 ± 1 | 13 ±2 | 0.09 |  | 50 | -9.9 | 220 ×10^3 | 260 | -7.3 |  |
| Ac-ASAHWGQRAAQGAQAVAAAQRAVSAAALMTQ-NH2 [P454 L463A-L475A-H477S-I479A] | 38 ± 2 | 5 ± 2 | 4 ± 1 | > 50 |  |  | -6.8 | 35 ×10^3 | 1580 | -6.2 | do not permeabilize vesicles |
| Ac-ASAHWGQRALQGAQAVAAAQRLVHAIAAMTQ-NH2 [P454 L481A] | 49 ± 1 | 44 ± 3 | 5 ± 1 | 0.06 |  | 90 | -9.6 | 780 ×10^3 | 70 | -8 |  |
| Ac-ASAHWGQQALQGAQAVAAAQRLVHAIALMTQ-NH2 [P454 R1Q] |  |  |  | 0.22 |  | 100 | -9.5 | 190 ×10^3 | 290 | -7.2 |  |
| Ac-ASAHAGQRALQGAQAVAAAQRLVHAAALMTQ-NH2 [P454 W458A-I479A] | 55 ± 1 | 7 ± 3 | 10 ± 3 | > 80 |  | 2040 | -7.7 | 4.2 ×10^3 | 13200 | -4.9 | do not permeabilize vesicles |
| Ac-ASAHWGQRALQGAQAVAAAQRLVSAIALMTQ-NH2 [P454 H477S] | 40 ± 1 | 20 ± 2 | 4 ± 2 | 0.25 |  | 190 | -9.1 | 340 ×10^3 | 160 | -7.5 |  |
| Ac-ASAHWGQAALQGAQAVAAAQALVHAIALMTQ-NH2 [P454 R12A] |  |  |  | 0.14 |  |  |  | 280 ×10^3 | 200 | -7.4 |  |
| Ac-ASAHWGQRALQGAQAVAAAQQLVHAIALMTQ-NH2 [P454 R2Q] |  |  |  | 0.11 |  | 180 | -9.2 | 150 ×10^3 | 370 | -7 |  |
| CC[C@H](C)[C@H](NC(=O)[C@H](C)NC(=O)[C@H](Cc1c[nH]cn1)NC(=O)[C@@H](NC(=O)[C@H](CC(C)C)NC(=O)[C@H](CCCNC(=N)N)NC(=O)[C@H](CCC(N)=O)NC(=O)[C@H](C)NC(=O)[C@H](C)NC(=O)[C@H](C)NC(=O)[C@@H](NC(=O)[C@H](C)NC(=O)[C@H](CCC(N)=O)NC(=O)[C@H](C)NC(=O)CNC(=O)[C@H](CCC(N)=O)NC(=O)[C@H](CC(C)C)NC(=O)[C@H](C)NC(=O)[C@H](CCCNC(=N)N)NC(=O)[C@H](CCC(N)=O)NC(=O)CNC(=O)[C@@H](N)Cc1c[nH]c2ccccc12)C(C)C)C(C)C)C(=O)N[C@@H](C)C(=O)N[C@@H](CC(C)C)C(N)=O [P458] | 50 | 23 ± 2 | 10 ± 4 | 1.26 |  |  |  | 190 ×10^3 | 290 | -7.2 |  |
